Literature values as cited in patent publication US20050042177A1, “Novel compositions of sildenafil free base” (Elan Pharma International Ltd., priority 2003, published 2005).

Experiments:
PDE6 = settings: PDE5 versus PDE6
[1] = 100 mg oral dose, healthy adult males

| SMILES | Tmax [1] [h] | mean Cmax [1] [ng/mL] | t1/2 [1] | absolute bioavailability (in vivo) [%] | potency for PDE5 as compared to PDE6 (PDE6) |
| --- | --- | --- | --- | --- | --- |
| CCCc1nn(C)c2c(=O)[nH]c(-c3cc(S(=O)(=O)N4CCN(C)CC4)ccc3OCC)nc12.O=C(O)CC(O)(CC(=O)O)C(=O)O [Sildenafil citrate, 1-[[3-(6,7-dihydro-1-methyl-7-oxo-3-propyl-1H-pyrazolo[4,3-d]pyrimidin-5-yl)-4-ethoxyphenyl]sulfonyl]-4 methylpiperazine citrate] | 1 | 440 | about 4 hours | 40 | – |
| CCCc1nn(C)c2c(=O)[nH]c(-c3cc(S(=O)(=O)N4CCN(C)CC4)ccc3OCC)nc12 [Sildenafil, 1-[[3-(6,7-dihydro-1-methyl-7-oxo-3-propyl-1H-pyrazolo[4,3-d]pyrimidin-5-yl)-4-ethoxyphenyl]sulfonyl]-4-methylpiperazine] | – | – | – | – | approximately 10 fold |
